These results are taken from PubChem BioAssay AID1850 (Southern Research Specialized Biocontainment Screening …, 2009).

Several values for one entry are separate records, joined by “and”; a condition that tells them apart may be missing. Equal entries are not always repeated. Where only a bound is given, the exact number is not on record here.

The test system of this assay is Salmonella Typhi PhoP-promoter GFP reporter, fluorescence, 4 h. Kind of assay: Inhibition of PhoP regulon, Salmonella typhi GFP reporter cells, confirmation, 4 h (AID 1850).
What is called IC50 is the concentration that inhibits the measured activity by half. Consider `CN(C)CCCNc1cc(C(C)(C)C)nc2c(-c3ccc(Cl)cc3)cnn12`, for which the IC50 is 18.9 µM. As to `Cc1ccc(OCC(O)Cn2c(=N)n(CCN3CCCCC3)c3ccccc32)cc1` (stereo unspecified), the 50% inhibitory concentration (IC50) is 112 µM. Next, `CCCCCCCCCCOC(=O)Cn1c(COc2ccc(Cl)cc2)[n+](C)c2ccccc21`: 10.3 µM; `OC(CNCCc1ccc(C(F)(F)F)cc1)COC(c1ccccc1)c1ccccc1` (stereo unspecified): 25.8 µM; `CCOC(=O)N/N=C(/C)c1ccc([N+](=O)[O-])o1`: 53.7 µM.

Consider `O=C1CN(/N=C/c2ccc([N+](=O)[O-])o2)C(=O)N1`, for which the IC50 was 41.1 µM.

Take `O=C(Nc1nnc(-c2cccs2)o1)c1cccc(C(F)(F)F)c1`: the IC50 is 22.9 µM.

With `CCn1cc(C(=O)NCc2ccc3c(c2)OCO3)c(=O)c2cc(F)c(N3CCN(C(=O)c4ccco4)CC3)cc21`, the IC50 is 139 µM.

In the case of `CCn1cc(C(=O)O)c(=O)c2cc(F)c(N3CCN(C(=S)NC(=O)c4cccc(C)c4)CC3)cc21`, the IC50 is 16 µM.

Regarding `O=C(CSc1ccccn1)N/N=C/c1c[nH]c2ccccc12`, the IC50 was 117 µM. Next, `NC1CCN(c2c(F)cc3c(=O)c(C(=O)O)cn(C4CC4)c3c2Cl)C1` (stereo unspecified): less than 0.23 µM; `CC(Nc1nc(N2CCCCC2)nc2ccccc12)c1ccccc1` (stereo unspecified): 39.2 µM. Next, `CC(C)(C)c1ccc(OCCCCCCN2CCNCC2)cc1`: 69.2 µM; `CC(C)(C)CC(C)(C)c1ccc(OCCOCC[N+](C)(C)Cc2ccccc2)cc1`: 20.4 µM; `c1ccc2c(c1)C(=NC1CCCCC1)NC2=NC1CCCCC1`: 65.6 µM. Next, `Clc1ccc(CNCc2cccs2)cc1Cl`: 32 µM; `CC1COc2c(N3CCN(C)CC3)c(F)cc3c(=O)c(C(=O)O)cn1c23` (stereo unspecified): 0.31 µM; `CC[C@H]1OC(=O)[C@H](C)[C@@H](O[C@H]2C[C@@](C)(OC)[C@@H](O)[C@H](C)O2)[C@H](C)[C@@H](O[C@@H]2O[C@H](C)C[C@H](N(C)C)[C@H]2O)[C@](C)(O)C[C@@H](C)[C@@H]2N[C@@H](COCCOC)O[C@H]([C@H]2C)[C@]1(C)O`: 8.02 µM.

On to `O=[N+]([O-])c1cc(Cl)cc(/C=N/NC(=S)Nc2ccc(S(=O)(=O)N3CCOCC3)cc2)c1O`, for which the IC50 was 80.3 µM. Next, `CN(C)CCCN(C(=O)CCc1ccccc1)c1nc2ccc(Br)cc2s1`: 69 µM; `CN(C)CC/C=C1\c2ccccc2Sc2cc(F)c(Cl)cc21`: 26.5 µM; `CCCCCOc1ccc(CSC(=N)N)cc1[N+](=O)[O-]`: 57.7 µM. For `CCN1/C(=C/C=C/C=C/c2sc3ccccc3[n+]2CC)Sc2ccccc21`, the IC50 is 13.2 µM. Next, `Oc1cc(Cl)ccc1Oc1ccc(Cl)cc1Cl`: 0.67 µM; `CCCCCCCCCCOC(=O)Cn1c(COc2ccccc2OC)[n+](C)c2ccccc21`: 10.2 µM; `O=c1c2c([nH]c3ccccc13)CCCCC2`: 43.6 µM. Next, `O=C(Cc1cccs1)N/N=C\c1ccc([N+](=O)[O-])s1`: 35 µM; `COc1cccc(NC2=NC3(CCCCC3)N=C(N)N2)c1`: 75.6 µM; `O=C(N/N=C\c1ccc(Cl)s1)c1cccs1`: 78.5 µM.

Consider `CN(C)CC/C=C1\c2ccccc2Sc2ccc(Cl)cc21`, for which the IC50 is 72.2 µM. Next, `CCCCCCCCCCCCCCCC[n+]1ccc(C(N)=O)cc1`: 10.5 µM. Next, `O=C(Cc1ccccc1)NNC(=S)NC(=O)c1cccs1`: 46.5 µM. Next, `O=C(CSC1=NC(=O)C(c2ccccc2)C(=O)N1)Nc1cccc(Cl)c1` (stereo unspecified): 43.8 µM; `Cc1ccc(C(C[N+](=O)[O-])Sc2ccc(N)cc2)cc1` (stereo unspecified): 55.1 µM; `O=C1C2=C(Nc3ccccc3SC2c2ccco2)c2ccccc21` (stereo unspecified): 12.3 µM. Consider `C=CCNc1ncnc2c1[nH]c1ccc(C)cc12`, for which the IC50 was 18.9 µM.

`NC1=NC[C@H](Cc2ccc(O)cc2)N1CCCCC1CCCCC1`: the IC50 was 17.7 µM.

With `[O-][n+]1c2c(c3c4non(O)c4ccc31)CCCC2`, the half-maximal inhibitory concentration (IC50) was 74.7 µM. As to `CN(C)CC/C=C1\c2ccc(F)cc2Sc2cc(F)c(Cl)cc21`, the IC50 is 32.4 µM. Turning to `CN(C)CCCNC(=O)c1ccc(-c2nc(-c3ccc(Cl)cc3)cs2)cc1`, the IC50 was 20.8 µM. Next, `COC(=O)C1C(O)C(C)C(O)C(C)/C=C\C=C(/C)C(=O)Nc2c(C)c(OC(C)=O)c3c(c2O)C(=O)C(C)=C2OCOC(=C23)/C(C)=C/C(C)(O)C(O)C(C)C1O` (stereo unspecified): 25.2 µM. Next, `c1ccc2c(c1)CSc1sccc1C2=C1CCNCC1`: 49.7 µM; `CCOC(=O)C1=C(c2ccccc2)NC(N)=NC1c1ccc(OCc2ccc(C(=O)OC)cc2)cc1` (stereo unspecified): 34.4 µM; `CN1CCN(CC(=O)N2CCn3c4c(c5cc(C6CCCCC6)ccc53)CCCC42)CC1` (stereo unspecified): 32 µM.

For the molecule `COc1ccccc1Nc1nc(NCc2ccco2)c2ccccc2n1`, the IC50 is 19.6 µM. `CC(C)Oc1ccc(Cc2cnc(N)nc2N)cc1`: the IC50 was 67.5 µM.

`CN1CCN(C(c2ccc(Br)cc2)c2cc(Cl)c3cccnc3c2O)CC1` (stereo unspecified): the IC50 is 68.3 µM. Next, `O=[N+]([O-])c1cc(F)c2cccnc2c1O`: 6.57 µM. Next, `C=CCn1c(NS(=O)(=O)c2ccccc2)c(S(=O)(=O)c2ccc(C)cc2)c2nc3ccccc3nc21`: 50.4 µM. Next, `O=C(c1ccc([N+](=O)[O-])o1)N1CCOCC1`: 76.8 µM; `OC(c1cc(C(F)(F)F)nc2c(C(F)(F)F)cccc12)C1CCCCN1` (stereo unspecified): 20.3 µM; `CN(Cc1ccccc1O)CC1CCCN(CCc2ccc(Cl)cc2)C1` (stereo unspecified): 98.5 µM. As for `COc1ccc(C(=O)NC(=S)NNC(=O)c2cnccn2)cc1`, the half-inhibitory concentration (IC50) was 92.4 µM. Next, `Cc1cc(C)n(/N=C/c2cc(Cl)cc(Cl)c2O)c(=O)c1`: 137 µM. For the molecule `O=C(Nc1ccc([N+](=O)[O-])cc1Cl)c1cc(Cl)ccc1O`, the IC50 was 123 µM. For the molecule `Cc1ccc(C(=O)O)cc1N=Cc1cc(Br)cc(Br)c1O`, the IC50 is 27.4 µM.

As for `C/C(=N\Nc1ccc2nncn2n1)c1ccccn1`, the 50% inhibitory concentration (IC50) was 65.7 µM. Next, `O=[N+]([O-])c1ccc(O)c2ncccc12`: 0.96 µM.

On to `O=C(NC(CO)Cc1ccc([N+](=O)[O-])cc1)C(Cl)Cl` (stereo unspecified), for which the IC50 was 5.73 µM. Take `COC12C(COC(N)=O)C3=C(C(=O)C(C)=C(N)C3=O)N1CC1C2N1C` (stereo unspecified): the IC50 is 8.18 µM. Next, `CN1/C(=C\C=C\C2=[N+](C)c3ccc4ccccc4c3C2(C)C)C(C)(C)c2ccccc21`: 5.78 µM; `CC(C(=O)NC1C=CS(=O)(=O)C1)N1C(=O)/C(=C/c2ccc(Cl)cc2)SC1=S` (stereo unspecified): 32 µM.

On to `C#CCOCCOCCOCCNc1nc(N2CCN(C(=O)CCCCCCCCCCNC(=O)[C@H]([C@@H](C)CC)n3cc(CCCCN=C(N)N)nn3)CC2)nc(N2CCN(C(=O)CCCCCCCCCCNC(=O)[C@H](CO)n3cc(CCCCCN)nn3)CC2)n1`, for which the IC50 is 34.7 µM. Next, `Cc1ccc(Nc2nc(N)c3ccccc3n2)cc1Cl`: 21 µM; `Oc1ccc(C[C@@H]2CNCCN2CCC23CC4CC(CC(C4)C2)C3)cc1`: 71.5 µM; `O=C(O)c1cn(C2CC2)c2cc(N3CCN(S(=O)(=O)c4ccc5c(c4)OCCO5)CC3)c(F)cc2c1=O`: 7.56 µM. Next, `CCOc1cccc(CNCCc2c(C)[nH]c3ccc(OC(F)(F)F)cc23)c1O`: 39.7 µM; `Oc1c(Br)cc(Br)cc1C=Nc1ccc2[nH]ncc2c1`: 27.6 µM; `CN1CCN(c2c(F)cc3c(=O)c(C(=O)O)cn4c3c2SCC4)CC1`: 2.46 µM and 3.26 µM.

For `Fc1ccc([C@@H]2CCNC[C@H]2COc2ccc3c(c2)OCO3)cc1`, the IC50 is 42.9 µM. Next, `CCCCOCCCNc1ncnc2c1[nH]c1ccccc12`: 71.1 µM; `CN(O)/C=c1/ccc2c(n1)C(=O)C=CC=2`: 34.8 µM; `Cc1cc(C(C)(C)CC(C)(C)C)ccc1OCCOCC[N+](C)(C)Cc1ccccc1`: 18.2 µM. In the case of `CC(=O)NC(c1cccs1)c1cc([N+](=O)[O-])c2cccnc2c1O` (stereo unspecified), the IC50 is 31.7 µM. As to `Oc1[nH]c2ccc(Br)cc2c1N=NC(=S)N1CCOCC1`, the IC50 was 36.6 µM. Next, `Oc1cccc2ccc(Nc3ccccn3)nc12`: 9.36 µM; `COC(=O)C1C(O)C(C)C(O)C(C)(O)/C=C\C=C(/C)C(=O)Nc2c(C)c(OC(C)=O)c3c(c2O)C(=O)C(C)=C2OCOC(=C23)/C(C)=C/C(C)(O)C(O)C(C)C1O` (stereo unspecified): 27.3 µM. Next, `CCN1CCN(C(=O)c2cc3cc(Cl)ccc3[nH]2)CC1`: 89.5 µM; `O=C1C=C(Nc2ccccc2O)c2ccccc2C1=O`: 54.5 µM. For `CCn1cc(C(=O)O)c(=O)c2cc(F)c(N3CCN(C(=S)NC(=O)c4ccccc4F)CC3)cc21`, the IC50 was 55.1 µM. Regarding `COc1cccc(Nc2nc(NCC3CCCO3)c3ccccc3n2)c1` (stereo unspecified), the IC50 was 10.2 µM.

As to `CN(C)[C@@H]1C(=O)C(C(N)=O)=C(O)[C@@]2(O)C(=O)C3=C(O)c4c(O)cccc4[C@@](C)(O)C3[C@H](O)C12` (stereo partly specified), the IC50 was 1.03 µM and 4.02 µM.

For the molecule `O=[N+]([O-])c1ccc(O)c(/C=N/Nc2ccccn2)c1`, the 50% inhibitory concentration (IC50) is 13.2 µM. Next, `CN1CCN(C2Cc3cc(Cl)ccc3Sc3cc(F)ccc32)CC1` (stereo unspecified): 35 µM; `C/C(O)=C\c1nc2ccccc2oc1=O`: 44.4 µM; `O=C(Oc1ccccc1)c1cc2ccccc2o1`: 38.1 µM. As for `O=C(CC1NCCc2ccccc21)Nc1ccc(Oc2ccccc2)cc1` (stereo unspecified), the IC50 is 47.3 µM.

On to `O=C(N/N=C/c1ccc([N+](=O)[O-])o1)c1ccc(O)cc1`, for which the IC50 was 19.9 µM.

As to `O=C(/C=C/c1cccs1)NC(=S)NNC(=O)c1ccccc1O`, the IC50 is 35.2 µM. `COc1ccccc1CNCCc1ccc(F)cc1`: the IC50 is 24.8 µM.

For `CCOC(=O)C1=C(O)c2ccccc2C(=O)/C1=C\c1ccc(C)cc1`, the IC50 is 142 µM.

With `CCCCNC1=CC(=O)C(=O)c2ccccc21`, the IC50 was 13.8 µM. Next, `Fc1ccc(CCNCc2ccc(Cl)c(Cl)c2)cc1`: 36.9 µM; `CCn1cc(C(=O)O)c(=O)c2cc(F)c(N3CCN(C(=S)Nc4ccc(OC)cc4)CC3)cc21`: 5.79 µM. Next, `O=C(N/N=C/c1cc([N+](=O)[O-])ccc1O)C(O)(c1ccccc1)c1ccccc1`: 73.4 µM; `O=C(Nc1nnc(-c2ccccn2)o1)c1cccc(Cl)c1`: 114 µM.
